# Reference: PMC3280214, “Structure Based Discovery of Small Molecules to Regulate the Activity of Human Insulin Degrading Enzyme” (PLoS ONE, 2012)
# pEC50: −log10 of the molar value. “Also recorded” adds a separate entry of the source.
# Key:
# HeLa cells [1] = experiment: Cell-based degradation of FITC-insulin; parameters: species or system human
# Protocol: It was shown that HeLa cells express insulin receptor, and thus take FITC-labeled insulin inside and degrade it intracellularly, [21], [22]. First, FITC-insulin was added to the culture that contains HeLa cells and incubated for 2 hours in order to allow for sufficient uptake of FITC-insulin by HeLa cells. In order to ensure that FITC-labeled insulin is translocating into the cells through insulin uptake receptor, and that cytoplasmic IDE can degrade FITC- insulin, we conducted live cell imaging of HeLa cells, and recorded fluorescence. At various time points compounds, D3, D6, and D10, were added; and cells were washed with Hank's balanced salt solution (HBSS), the these cells were collected and lysed with appropriate buffer. After centrifugation, cell free extracts were used to measure the change in fluorescence by luminometer. […] Compound D10 increased in vivo proteolysis of FITC- insulin by about 32 fold with HeLa cells compared to control group (Fig. 3A). […] These findings are consistent with the data obtained by in vitro assay, showing enhanced degradation of insulin by D10 and D3 (Fig. 3A). […] This figure further verifies the significant increase in fluorescence observed in the presence of compound D10, which is consistent with our in vitro assay (Fig. 3B).
# Cells were cultured at 37°C under a humidified atmosphere of 5% CO2 in medium supplemented with 10% fetal bovine serum. Then, FITC-insulin was added to cell medium and incubated for 2 h at 37°C. Next, compounds were loaded at different time intervals separately. Cells were washed with Hank's balanced salt solution (HBSS), then disrupted with 1× passive lysis buffer. Fluorescence was measured with a luminescence multi-label plate leader, and changes in fluorescence was imaged by fluorescence microscope at Burc Laboratory (Istanbul, Turkey).
# IDE [2] = target: T1, IDE (Homo sapiens, UniProt P14735); experiment: FAβB (amyloid-β) degradation assay; type: biochemical
# T1 construct: made in house; host or cells: E. coli BL21
# T1 sequence (P14735 1-1019): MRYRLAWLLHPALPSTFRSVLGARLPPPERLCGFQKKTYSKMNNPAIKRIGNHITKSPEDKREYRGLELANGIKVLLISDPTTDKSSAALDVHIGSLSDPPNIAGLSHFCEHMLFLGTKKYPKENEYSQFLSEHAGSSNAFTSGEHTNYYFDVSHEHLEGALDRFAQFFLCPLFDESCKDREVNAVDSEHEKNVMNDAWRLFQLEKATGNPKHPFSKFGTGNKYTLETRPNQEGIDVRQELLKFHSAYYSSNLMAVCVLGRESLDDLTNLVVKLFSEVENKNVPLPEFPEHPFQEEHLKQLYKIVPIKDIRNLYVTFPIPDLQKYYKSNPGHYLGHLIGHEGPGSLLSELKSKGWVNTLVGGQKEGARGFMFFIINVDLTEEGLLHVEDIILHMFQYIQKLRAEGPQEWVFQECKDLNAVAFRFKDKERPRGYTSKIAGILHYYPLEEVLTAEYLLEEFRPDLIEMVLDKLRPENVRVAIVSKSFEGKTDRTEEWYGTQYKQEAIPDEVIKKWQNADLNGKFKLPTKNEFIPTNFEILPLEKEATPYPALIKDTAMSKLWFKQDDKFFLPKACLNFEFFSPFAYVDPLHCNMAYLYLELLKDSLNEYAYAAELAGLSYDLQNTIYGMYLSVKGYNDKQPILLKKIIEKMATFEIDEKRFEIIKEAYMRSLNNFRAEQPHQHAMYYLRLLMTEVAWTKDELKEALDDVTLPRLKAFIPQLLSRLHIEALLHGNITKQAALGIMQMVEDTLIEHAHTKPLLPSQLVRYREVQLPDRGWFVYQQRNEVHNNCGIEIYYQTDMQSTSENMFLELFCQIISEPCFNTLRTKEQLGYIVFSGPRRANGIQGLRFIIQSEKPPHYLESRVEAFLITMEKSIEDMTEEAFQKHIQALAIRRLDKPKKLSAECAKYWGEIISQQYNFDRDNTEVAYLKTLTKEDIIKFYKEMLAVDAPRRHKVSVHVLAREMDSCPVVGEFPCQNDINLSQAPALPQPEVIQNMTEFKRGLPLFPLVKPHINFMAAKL
# Protocol: The 10 compounds given in Table 1 were subjected to further characterization and their effect was measured on the proteolytic activity of IDE using different substrates. Initially, activity assays were carried out at fixed 20 µM concentrations for all molecules to identify the effect of those compounds on IDE activity. IDE activity was quantified by monitoring the change in fluorescence for the proteolysis of fluorogenic-substrate V, FITC- insulin-bound antibody, and FAβB by recombinant human IDE purified from E.coli BL21 [6], [18], [19]. […] Also, D6 increased the amyloid-β degradation by 20% (Fig. S1C). Further, D10 enhanced IDE-mediated FITC-insulin-mAb and substrate V degradation by 290% and 65%, respectively (Fig. S1A, B). Next, an EC50 value of each molecule that enhanced IDE activity was determined with a dose response assay, where specific activity of IDE was measured with different concentrations of the lead compounds and then the plot was fit to Sigmoidal Hill-4 parameter equation. […] EC50 value for D3 on insulin degradation was approximately measured as 20 µM (Fig. S2C), whereas EC50 value for D6 on amyloid-β degradation was 2 µM (Fig. S2D). […] Among all these four compounds, D10 seems to be the potent activator of IDE, when proteolysis of insulin is considered.
# This assay was performed as follows: 10 µl of 50 nM of FAβB was dissolved in a buffer which consisted of 50 mM HEPES, 100 mM NaCl, % 0,05 (v/v) bovine serum albumin, at a pH of 7.4. The reaction was initiated in a total volume of 100 µl with 20 µM drugs by adding 20 µl of 0.02 mg/ml of IDE for 2.5 h at 37°C. The reaction was stopped by adding 2 µl of 100 mM of protease inhibitor (1, 10-phenanthroline). Uncleaved FAβB was precipitated with Neutravidin- coated agarose beads by gentle rocking for 30 min. and centrifugation for 10 min at 14000 g. The supernatant was transferred to the black 96 well plates and increase in fluorescence (488 excitation, 525 emission) was measured with a multi-label plate reader.
# The effect of the lead compounds on the initial rate of proteolysis of IDE was determined by measurement in fluorescence with time both in the presence and absence of the lead compounds. The kinetic data for IDE-mediated insulin, substrate V and amyloid-β degradation were plotted and fitted using SigmaPlot software (Sigmoidal, Hill, 4 parameter). For the initial rate calculations, kinetic data were fitted using SigmaPlot software (Hyperbola; Single Rectangular I, 3 Parameter).
# HeLa cells [3] = experiment: MTT assay for cell viability; type: cell-based, human
# Description: We characterized the activity of novel compounds in a cellular assay to establish whether there were any cytotoxic effects. We used an established MTT (3-(4,5-dimethylthiazolyl-2)-2, 5-diphenyltetrazolium bromide or thiazolyl blue) method using HELA cells to determine whether the small molecule affects cell viability. In this method, a purple formazan dye forms as a result of the cleavage of the yellow tetrazolium MTT within metabolically active cells. The resulting precipitate of the intracellular formazan can be dissolved in a detergent solution and quantified spectrophotometrically at 595 nm. We measured the cytotoxicity by incubating HELA cells in the presence of novel compounds at concentrations ranging from 1 to 100 µM for 24 h. Cell viability was measured using the MTT method after […] culture. The extent of cell death was expressed relative to a control containing DMSO. […] Therefore, as a next step we tested the effects of lead compounds on insulin catabolism using HeLa cells.
# The cytotoxicity assay was performed using human cervical cancer HeLa cells. Cells were cultured at 37°C under a humidified atmosphere of 5% CO2 in medium supplemented with 10% fetal bovine serum and dispersed in replicate 96-well plates with 2.5×10^4 cells/well. Compounds were then added. After 24 hours exposure to the chemical compounds, the cell viability was determined by 3-[4,5-dimethylthiazol-2-yl]-2,5-diphenpyltetrazolium bromide (MTT) assay. The optical density (OD) of the wells was determined using ELISA plate reader at a test wavelength of 600 nm and a reference wavelength of 630 nm. Each measurement was carried out in triplicate.
# IDE [4] = details: bradykinin as IDE substrate; cited from earlier work
Molecule,effect on insulin catabolism in HeLa cells (HeLa cells [1]; HeLa cells pre-loaded with FITC-insulin),permeability through cell membrane (HeLa cells [1]; inferred from HeLa cell assay),increase of IDE-mediated amyloid-β degradation (IDE [2]; 20 µM compound) [%],"effect of ATP on amyloid-β degradation in presence of compound (IDE [2]; ATP, data not shown)","pEC50 (IDE [2]; dose response, Sigmoidal Hill 4 parameter fit)",acceleration of initial rate of amyloid-β proteolysis (IDE [2]; presence vs absence of compound) [factor],cytotoxicity at EC50 value (HeLa cells [3]; 2 µM),"cytotoxicity at high concentrations (HeLa cells [3]; 1 to 100 µM, 24 h)",Km (IDE [4]) [mM]
O=[N+]([O-])c1cc(Cn2c(-c3ccc(Cl)c([N+](=O)[O-])c3)nc3ccccc32)ccc1Cl [Compound D6],no effect on insulin catabolism; also recorded: does not change insulin degradation,permeable through cell membrane,20,no effect,5.70,1.3,not toxic,showed toxicity at higher concentrations,–
"bradykinin (RPPGFSPFR; Bradykinin; UniProt P01042 381-389, looked up)",–,–,–,–,–,–,–,–,4.2
